Patent US6191127A, “Substituted heterocycles and their use in medicaments” (Schering Aktiengesellschaft, priority 1997, dated 2001)

Assays:
Type in all cases: biochemical
[1] = target: recombinant human inducible NO-synthases (iNOS) (Homo sapiens, UniProt P35228); assay: Inhibition assay with recombinant human inducible NO-synthases (iNOS); details: substrate [3H]-arginine; analogously to bcNOS
Excerpt: (§1) The NOS-inhibitory action of the compounds of Formula I and their physiologically compatible salts can be determined with the variants that are mentioned below according to the methods by Bredt and Snyder in Proc. Natl. Acad. Sci. USA (1989) 86, 9030.
(§2) Inhibition assay with recombinant human brain NO-synthases (bcNOS). (Concentration: 0.022 IU/l). Measured parameters: % inhibition by test compound. Substrate: [3H]-arginine (concentration 4.4E-08 mol/l). Analogously to recombinant human endothelial NO-synthases (ecNOS) and recombinant human inducible NO-synthases (iNOS).

[2] = target: recombinant human endothelial NO-synthases (ecNOS) (Homo sapiens, UniProt P29474); assay: Inhibition assay with recombinant human endothelial NO-synthases (ecNOS); details: substrate [3H]-arginine; analogously to bcNOS
Excerpt: as §1, §2

[3] = target: recombinant human brain NO-synthases (bcNOS) (Homo sapiens, UniProt P29475); assay: Inhibition assay with recombinant human brain NO-synthases (bcNOS); details: substrate [3H]-arginine 4.4E-08 mol/l; bcNOS 0.022 IU/l
Excerpt: as §1, §2

CCCC1Oc2ccccc2N=C1N (stereo not drawn) [2-n-Propyl-3-amino-1,4-benzoxazine]
IC50 [1]: > 100 µM | IC50 [2]: > 10 µM | IC50 [3]: 1.2 µM

Cc1cccc2c1OC(C)C(N)=N2 (stereo not drawn) [2,8-Dimethyl-3-amino-1,4-benzoxazine]
IC50 [1]: > 10 µM | IC50 [2]: > 100 µM | IC50 [3]: 20 µM

Cc1cc2c(cc1C)OC(C)C(N)=N2 (stereo not drawn) [2,6,7-Trimethyl-3-amino-1,4-benzoxazine]
IC50 [1]: > 100 µM | IC50 [2]: > 10 µM | IC50 [3]: 3 µM
